Counter-ions that a name gives are not always drawn.
Target: Mer (phospho-Mer, MERTK-transfected 293A cells) (Homo sapiens (Human), UniProt Q12866)
Assay: Mer autophosphorylation ELISA in transient transfected 293A cells (Example H)
Assay type: cell-based
Conditions: cellular activity; Mer autophosphorylation ELISA in transient transfected 293A cells
Summary of the method: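 IC50 from 4-parameter logistic fit of phospho-Mer levels, quantified by ELISA against a phospho-Mer standard in lysates of MERTK-transfected 293A cells. Cells exposed 1 h to 8-point serial dilutions, serum-free, 0.3% DMSO; controls: DMSO (100%) and reference inhibitor (0%).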

Chain of Mer (phospho-Mer, MERTK-transfected 293A cells) (Q12866 21-999): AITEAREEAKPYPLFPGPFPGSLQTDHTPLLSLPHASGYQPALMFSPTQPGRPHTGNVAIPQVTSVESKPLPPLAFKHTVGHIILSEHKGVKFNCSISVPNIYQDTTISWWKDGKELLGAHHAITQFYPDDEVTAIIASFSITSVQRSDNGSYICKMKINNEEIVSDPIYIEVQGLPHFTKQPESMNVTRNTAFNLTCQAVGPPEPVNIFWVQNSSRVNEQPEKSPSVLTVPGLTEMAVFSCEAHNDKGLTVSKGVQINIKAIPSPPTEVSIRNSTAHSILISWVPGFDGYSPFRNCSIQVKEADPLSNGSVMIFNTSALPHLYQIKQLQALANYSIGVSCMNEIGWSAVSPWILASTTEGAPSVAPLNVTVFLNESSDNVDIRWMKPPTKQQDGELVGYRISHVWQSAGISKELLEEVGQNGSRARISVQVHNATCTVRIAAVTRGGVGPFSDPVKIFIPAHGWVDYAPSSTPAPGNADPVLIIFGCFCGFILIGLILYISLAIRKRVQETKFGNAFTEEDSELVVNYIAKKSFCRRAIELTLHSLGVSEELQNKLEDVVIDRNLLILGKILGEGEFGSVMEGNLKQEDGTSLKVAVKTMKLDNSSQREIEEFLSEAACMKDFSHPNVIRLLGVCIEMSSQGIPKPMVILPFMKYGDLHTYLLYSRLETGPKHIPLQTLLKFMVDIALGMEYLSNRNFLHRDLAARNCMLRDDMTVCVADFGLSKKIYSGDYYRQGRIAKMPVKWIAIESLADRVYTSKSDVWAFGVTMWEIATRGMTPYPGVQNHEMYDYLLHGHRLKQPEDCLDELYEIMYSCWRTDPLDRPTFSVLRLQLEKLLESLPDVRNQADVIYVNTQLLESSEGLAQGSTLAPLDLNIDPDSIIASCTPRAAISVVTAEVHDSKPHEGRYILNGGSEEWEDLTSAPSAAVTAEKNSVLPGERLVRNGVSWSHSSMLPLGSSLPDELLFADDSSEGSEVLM

Compound	IC50
COc1cc2ncnc(Oc3ccc(NC(=O)c4cn(C(C)C)cc(-c5ccc(F)cc5)c4=O)cc3F)c2nc1OC [Compound 636, N-[4-(6,7-dimethoxypyrido[3,2-d]pyrimidin-4-yl)oxy-3-fluorophenyl]-5-(4-fluorophenyl)-4-oxo-1-propan-2-ylpyridine-3-carboxamide]	< 100 nM
COc1cc2nccc(Oc3ccc(NC(=O)c4cn(CCO)c(C)c(-c5ccc(F)cc5)c4=O)cc3F)c2nc1OC [Compound 619, N-[4-[(6,7-Dimethoxy-1,5-naphthyridin-4-yl)oxy]-3-fluorophenyl]-5-(4-fluorophenyl)-1-(2-hydroxyethyl)-6-methyl-4-oxopyridine-3-carboxamide]	< 100 nM
COc1cc2nccc(Oc3ccc(NC(=O)c4cn(C(C)C)c(C)c(-c5ccc(F)cc5)c4=O)cc3F)c2nc1O [Compound 580, N-[3-Fluoro-4-[(6-hydroxy-7-methoxy-1,5-naphthyridin-4-yl)oxy]phenyl]-5-(4-fluorophenyl)-6-methyl-4-oxo-1-propan-2-ylpyridine-3-carboxamide]	< 100 nM
Cc1nc2c(Oc3ccc(NC(=O)c4cn(C(C)C)c(C)c(-c5ccc(F)cc5)c4=O)cc3)ccnc2cc1-c1cnn(C(F)F)c1 [Compound 612, N-[4-[[7-[1-(Difluoromethyl)pyrazol-4-yl]-6-methyl-1,5-naphthyridin-4-yl]oxy]phenyl]-5-(4-fluorophenyl)-6-methyl-4-oxo-1-propan-2-ylpyridine-3-carboxamide hydrochloride]	< 100 nM
COc1cc2nccc(Oc3ccc(NC(=O)c4cn(C(C)(C)C)c(C)c(-c5ccc(F)cc5)c4=O)cc3F)c2nc1OC [Compound 139, 1-tert-Butyl-N-[4-[(6,7-dimethoxy-1,5-naphthyridin-4-yl)oxy]-3-fluorophenyl]-5-(4-fluorophenyl)-6-methyl-4-oxopyridine-3-carboxamide]	< 100 nM
Cc1nc2c(Oc3ccc(NC(=O)c4cn(C(C)C)c(C)c(-c5ccc(F)cc5)c4=O)cc3)ccnc2cc1-c1cccnc1 [Compound 613, 5-(4-Fluorophenyl)-6-methyl-N-[4-[(6-methyl-7-pyridin-3-yl-1,5-naphthyridin-4-yl)oxy]phenyl]-4-oxo-1-propan-2-ylpyridine-3-carboxamide hydrochloride]	< 100 nM
Cc1c(-c2ccc(F)cc2)c(=O)c(C(=O)Nc2ccc(Oc3ccnc4cc(F)cnc34)c(F)c2)cn1C(C)C [Compound 162, N-[3-Fluoro-4-[(7-fluoro-1,5-naphthyridin-4-yl)oxy]phenyl]-5-(4-fluorophenyl)-6-methyl-4-oxo-1-propan-2-ylpyridine-3-carboxamide]	< 100 nM
CCn1nc(C(=O)Nc2ccc(Oc3ccnc4cc(OC)c(OC)nc34)c(F)c2)c(=O)c(-c2ccc(F)cc2)c1C [Compound 568, N-[4-[(6,7-Dimethoxy-1,5-naphthyridin-4-yl)oxy]-3-fluorophenyl]-1-ethyl-5-(4-fluorophenyl)-6-methyl-4-oxopyridazine-3-carboxamide]	< 100 nM
Cc1nc2c(Oc3ccc(NC(=O)c4cnc(C)c(-c5ccc(F)cc5)c4O)cc3)ccnc2cc1-c1cnn(C(F)F)c1 [Compound 617, N-[4-[[7-[1-(Difluoromethyl)pyrazol-4-yl]-6-methyl-1,5-naphthyridin-4-yl]oxy]phenyl]-5-(4-fluorophenyl)-4-hydroxy-6-methylpyridine-3-carboxamide hydrochloride]	< 100 nM
COc1cc2ncnc(Oc3ccc(NC(=O)c4cn(-c5cnn(C)c5)cc(-c5ccc(F)cc5)c4=O)cc3F)c2nc1OC [Compound 637, N-[4-(6,7-dimethoxyprido[3,2-d]pyrimidin-4-yl)oxy-3-fluorophenyl]-5-(4-fluorophenyl)-1-(1-methylpyrazol-4-yl)-4-oxopyridine-3-carboxamide]	< 100 nM
CCn1cc(C(=O)Nc2ccc(Oc3ccnc4cc(OC)cnc34)c(F)c2)c(=O)c(-c2ccc(F)cc2)c1 [Compound 170, 1-Ethyl-N-[3-fluoro-4-[(7-methoxy-1,5-naphthyridin-4-yl)oxy]phenyl]-5-(4-fluorophenyl)-4-oxopyridine-3-carboxamide]	< 100 nM
Cc1nc2c(Oc3ccc(NC(=O)c4cnc(C)c(-c5ccc(F)cc5)c4O)cc3)ccnc2cc1-c1cccnc1 [Compound 616, 5-(4-Fluorophenyl)-4-hydroxy-6-methyl-N-[4-[(6-methyl-7-pyridin-3-yl-1,5-naphthyridin-4-yl)oxy]phenyl]pyridine-3-carboxamide hydrochloride]	100 to 300 nM
COc1cc2nccc(Oc3ccc(NC(=O)c4cn(C(C)C)c(C)c(-c5ccccc5)c4=O)cc3F)c2nc1OC [Compound 29, N-[4-[(6,7-Dimethoxy-1,5-naphthyridin-4-yl)oxy]-3-fluorophenyl]-6-methyl-4-oxo-5-phenyl-1-propan-2-ylpyridine-3-carboxamide hydrochloride]	< 100 nM

Further lines, results first:

IC50	Compound
< 100 nM	COc1cc2c(Oc3ccc(NC(=O)c4cnc(C)c(-c5ccc(F)cc5)c4O)cc3F)ccnc2cn1 [Compound 639, N-[3-fluoro-4-[(6-methoxy-1,7-naphthyridin-4-yl)oxy]phenyl]-5-(4-fluorophenyl)-4-hydroxy-6-methylpyridine-3-carboxamide]
< 100 nM	COc1cnc2c(Oc3ccc(NC(=O)c4cn(C)c(OC)c(-c5ccc(F)cc5)c4=O)cc3F)ccnc2c1 [Compound 587, N-[3-Fluoro-4-[(7-methoxy-1,5-naphthyridin-4-yl)oxy]phenyl]-5-(4-fluorophenyl)-6-methoxy-1-methyl-4-oxopyridine-3-carboxamide]
100 to 300 nM	Cc1ncc(C(=O)Nc2ccc(Oc3ccnc4cc(C(N)=O)cnc34)c(F)c2)c(O)c1-c1ccc(F)cc1 [Compound 577, 8-[2-Fluoro-4-[[5-(4-fluorophenyl)-4-hydroxy-6-methylpyridine-3-carbonyl]amino]phenoxy]-1,5-naphthyridine-3-carboxamide]
< 100 nM	COc1nc2c(Oc3ccc(NC(=O)c4cncc(-c5ccc(F)cc5)c4O)cc3F)ccnc2cc1Br [Compound 129, N-[4-[(7-Bromo-6-methoxy-1,5-naphthyridin-4-yl)oxy]-3-fluorophenyl]-5-(4-fluorophenyl)-4-hydroxypyridine-3-carboxamide]
< 100 nM	Cc1cc(F)ccc1-c1c(C)ncc(C(=O)Nc2ccc(Oc3ccnc4cc(C(C)C)cnc34)c(F)c2)c1O [Compound 593, 5-(4-Fluoro-2-methylphenyl)-N-[3-fluoro-4-[(7-propan-2-yl-1,5-naphthyridin-4-yl)oxy]phenyl]-4-hydroxy-6-methylpyridine-3-carboxamide]
< 100 nM	COc1cc2nccc(Oc3ccc(NC(=O)c4cnc(C)c(-c5ccc(F)cc5)c4O)cc3)c2nc1OC [Compound 119, N-[4-[(6,7-Dimethoxy-1,5-naphthyridin-4-yl)oxy]phenyl]-5-(4-fluorophenyl)-4-hydroxy-6-methylpyridine-3-carboxamide]
< 100 nM	COc1cnc2c(Oc3ccc(NC(=O)c4cn(C(C)C)c(C)c(-c5ccc(F)cc5)c4=O)cc3F)ccnc2c1 [Compound 121, N-[3-Fluoro-4-[(7-methoxy-1,5-naphthyridin-4-yl)oxy]phenyl]-5-(4-fluorophenyl)-6-methyl-4-oxo-1-propan-2-ylpyridine-3-carboxamide]
